According to publication PMC12027149 (International Journal of Molecular Sciences, 2025):
“And” between values parts separate entries of the source, which are not always exact repeats. Equal entries are not always repeated.

Legend:
[1] = MTT cytotoxicity assay on differentiated SH-SY5Y cells; assay type: cell-based, human; details: human, differentiated SH-SY5Y, 0.05–5 mM, MTT reduction assay, Hill fit, read-out: LC50
Description: (§1) The SH–SY5Y cell line (DSMZ code: ACC 209) was supplied by the German Collection of Microorganisms and the Cell Culture GmbH (DSMZ) biobank and was cultured according to the supplier’s information. Cells were grown in DMEM:F12 (Dulbecco’s Modified Eagle’s Medium/F12), supplemented with 10% fetal bovine serum (FBS) and 1% antibiotic–antimycotic in a humidified atmosphere with 5% CO2 at 37 °C. Subculture was performed according to biobank instructions when the cultures reached 80–85% of confluence.
(§2) SH-SY5Y cells were trypsinized (trypsin/EDTA; 0.25%) and the cell suspension was seeded in 96-well plates at a density of 2 × 10^4 cells/well and incubated until reaching 80-85% confluence. Cells were differentiated to obtain a dopaminergic neuronal phenotype according to Ferreira et al. with slight modifications (Figure 10). To ensure reproducibility and optimal neuronal differentiation, cells were used between passages (15–25). Briefly, cells were seeded in complete DMEM:F12 medium containing 10 µM retinoic acid (RA) and 2.5% fetal bovine serum (FBS) and maintained for 4 days, with the medium changed on day 2. After this time, the medium was replaced by DMEM:F12 supplemented with 10 µM RA, 80 nM 12-O-tetradecanoylphorbol-13-acetate (TPA), and 2.5% FBS, and the cells were maintained for an additional 4 days (with the medium changed at day 6). The cytotoxicity assay was performed on day 8.
(§3) The SH-SY5Y cells’ viability was evaluated after exposure for 24 h to […]. The 3-(4,5-dimethylthiazol-2-yl) − 2,5-diphenyltetrazolium bromide (MTT) colorimetric assay was performed following the methodology described by Joana Silva et al.. The experimental dose–response results were fitted to the Hill’s sigmoidal non-linear regression model. For each cathinone, the LC50 values (cathinone concentration showing 50% lethality) and their confidence interval at the 95% confidence level ([CI]) were determined. The Hill slope, also known as the Hill coefficient, which describes the steepness of a dose–response curve, and the minimum observable adverse effect concentration (LOAEL) were also determined for all cathinones.

[2] = system: differentiated SH-SY5Y cells; experiment: as above; assay type: cell-based, human; details: lowest observed adverse effect level, differentiated SH-SY5Y, 24 h, MTT
Description: as §1, §2, §3

SH-SY5Y cells [3] = experiment: Intracellular reactive oxygen species levels (H2-DCFDA probe); assay type: cell-based, human; details: 6 h treatment at LC50
Description: Reactive oxygen species (ROS) production was determined by evaluating ROS levels after exposure to cathinones at concentrations corresponding to their LC50 for 6 h. SH-SY5Y cells were washed with 1× PBS and incubated with 100 µL of 2′,7′-dichlorodihydrofluorescein diacetate (H2-DCFDA) (20 µM) in medium without FBS, for 60 min at 37 °C in the dark. Subsequently, the cells were washed with 1× PBS (1×), and the cells were maintained for 30 min at room temperature in 100 µL of PBS. After this time, ROS levels were determined by measuring fluorescence (excitation wavelength (λ): 495 nm; emission λ: 527 nm). Ascorbic acid (A.A) (100 µg/mL) served as the negative control and, hydrogen peroxide (H2O2) (200 µM) was used as the positive control. Results were expressed as a percentage relative to the control. All data were derived from at least three independent experiments (n = 3) and presented as mean ± standard error of the mean (SEM).

[4] = molecular target: T1, Acetylcholinesterase (AChE, EC 3.1.1.7) (Electrophorus electricus, UniProt O42275); experiment: Acetylcholinesterase inhibition, modified Ellman colorimetric method; assay type: biochemical; details: for Hillslope: AChE inhibition dose–response curve; for LOAEL: AChE inhibition; for LOAEL / IC50: Ellman assay; for IC50: IC50, AChE inhibition, 0.03–2 mM, Hill fit
T1 construct: purchased Sigma-Aldrich
T1 sequence (O42275 24-633): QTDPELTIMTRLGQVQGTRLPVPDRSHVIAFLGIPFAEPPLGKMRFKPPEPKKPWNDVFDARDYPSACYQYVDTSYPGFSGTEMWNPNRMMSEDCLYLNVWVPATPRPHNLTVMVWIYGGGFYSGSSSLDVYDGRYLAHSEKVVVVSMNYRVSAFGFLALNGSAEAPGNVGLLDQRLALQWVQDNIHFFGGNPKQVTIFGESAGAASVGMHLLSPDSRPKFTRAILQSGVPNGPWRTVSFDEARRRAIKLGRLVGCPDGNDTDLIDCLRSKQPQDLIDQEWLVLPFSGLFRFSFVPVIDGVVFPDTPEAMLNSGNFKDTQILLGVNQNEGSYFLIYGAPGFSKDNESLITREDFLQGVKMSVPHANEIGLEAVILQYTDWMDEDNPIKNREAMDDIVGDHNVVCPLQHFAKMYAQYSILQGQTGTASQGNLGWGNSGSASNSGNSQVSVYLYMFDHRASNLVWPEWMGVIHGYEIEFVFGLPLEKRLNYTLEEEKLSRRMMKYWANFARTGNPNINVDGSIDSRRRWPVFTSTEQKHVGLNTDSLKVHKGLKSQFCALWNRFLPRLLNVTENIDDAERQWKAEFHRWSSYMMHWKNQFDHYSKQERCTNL
Description: Acetylcholinesterase (AChE, EC 3.1.1.7) enzymatic activity was assessed using a modified version of Ellman’s colorimetric method, as described by Falé et al.. In this assay, a mixture of 325 μL of 50 mM Tris-HCl buffer (pH 8), 100 μL of a cathinone solution, and 25 μL of AChE (0.1 U/mL in 50 mM Tris–HCl buffer pH 8) were incubated. After a 15 min incubation period, 75 μL of AChI (0.33 mg/mL) was added to 475 μL of DTNB (dithiobis (2-nitrobenzoic acid)) (1.2 mg/mL in Tris–HCl buffer (pH 8) containing 0.1 M NaCl and 0.02 M MgCl2). A control reaction, representing 100% activity, was performed using the same volume of water instead of the cathinone solution. The initial velocity of the enzymatic reaction was measured at 405 nm for 5 min, with all assays carried out in duplicate. The percentage of AChE activity inhibition for different concentrations of cathinones [0.03–2 mM] was determined as the ratio of the initial velocity in the cathinone presence to the initial velocity of the control reaction. Experimental results were fitted to Hill’s sigmoidal dose–response non-linear regression model to determine IC50 values (cathinone concentration showing 50% inhibition), along with their confidence interval at the 95% confidence level ([CI]). The Hill slope coefficients that provide the steepest value of the slope of the dose–response curve and the minimum observable adverse effect concentration (LOAEL) for all cathinones were also determined.

SH-SY5Y cells [5] = experiment: Mitochondrial membrane potential (JC-1 probe); assay type: cell-based, human; details: 6 h treatment at LC50, JC-1
Description: Mitochondrial membrane potential (MMP) was estimated by using the JC-1 fluorescent probe (Molecular Probes, Eugene, OR, USA) as described in Silva et al., 2022 [65]. The formation of JC-1 aggregates (excitation λ: 490 nm; emission λ: 590 nm) and monomers (excitation λ: 490 nm; emission λ: 530 nm) was measured for 30 min using a plate reader (Bio-Tek Synergy plate reader, Bedfordshire, UK). Changes in MMP were calculated as the ratio between JC-1 monomers and aggregates and expressed as a percentage of the control. An FCCP (2.5 µM) and oligomycin A (1 mg/mL) conjugate solution was used as the positive control. All data were obtained from at least three independent experiments (n = 3) and were presented as mean ± standard error of the mean (SEM).

Structure (SMILES) | CC50 at 24 h [1] | LOAEL [2] | increase in ROS production compared to the vehicle (SH-SY5Y cells [3]) | Hillslope [4] | LOAEL [4] | IC50 [4] | inhibition at 2000 µM ([4]; highest tested concentration of 2 mM) | significant increase in ROS production compared to vehicle (SH-SY5Y cells [3]) | MMP depolarization (SH-SY5Y cells [5]) | maximum inhibition of AChE among the tested concentrations ([4]; 0.03 to 2 mM)
CC(NC(C)(C)C)C(=O)c1ccc(Cl)cc1 (racemic) [4-Cl-TBC (20), (R,S)-2-(tert-butylamino)-1-(4-chlorophenyl)propan-1-one] | 1300 µM | 0.5 mM | 30% | 2.7 | 0.500 mM | ~2000 µM | 48% | – | – | –
CCN(CC)C(C)C(=O)c1cccc(Cl)c1 (racemic) [3-Cl-DEC (15), (R,S)-1-(3-chlorophenyl)-2-(diethylamino)propan-1-one] | 1200 µM | 1 mM and 1.0 mM | – | 0.9 | 0.063 mM | 300 µM | – | exception | more pronounced MMP depolarization than the other cathinones | 87%
